Values of other authors in patent US20150218090A1, “DOSAGE REGIMEN FOR AN S1P RECEPTOR MODULATOR OR AGONIST” (NOVARTIS AG, priority 2011, published 2015).

Conditions: administration of 1.25 mg of FTY720; healthy subjects

CCCCCCCCc1ccc(CCC(N)(CO)CO)cc1 [FTY720, 2-amino-2-[2-(4-octylphenyl)ethyl]propane-1,3-diol]
decrease in heart rate: approximately 8 beats/min
